Values after ≈ are worked out from the molar mass of the structure shown.
Tested on: Mycobacterium tuberculosis variant bovis BCG
Assay: Antimycobacterial activity against Mycobacterium bovis BCG ATCC 35734 assessed as reduction in bacterial growth incubated for 6 days by MABA method
Assay type: functional
Conditions: ATCC 35734, 144 h

`NNC(=O)c1ccncc1` [ISONIAZID] was tested, and the MIC was 0.5 µM (≈ 0.0686 µg/mL).
With `C[C@H]1COC2(CCN(c3nc(=O)c4cc(C(F)(F)F)cc([N+](=O)[O-])c4[s+]3[O-])CC2)O1` (stereo not given in full) the MIC was 0.21 µM (≈ 0.094 µg/mL).
`CO[C@H]1/C=C/O[C@@]2(C)Oc3c(C)c(O)c4c(O)c(c(/C=N/N5CCN(C)CC5)c(O)c4c3C2=O)NC(=O)/C(C)=C\C=C\[C@H](C)[C@H](O)[C@@H](C)[C@@H](O)[C@@H](C)[C@H](OC(C)=O)[C@@H]1C` [RIFAMPIN] was tested, and the MIC was 0.02 µM (≈ 0.0165 µg/mL).
Work on `C[C@H]1COC2(CCN(C3=NC(=O)c4cc(C(F)(F)F)cc([N+](=O)[O-])c4S3(=O)=O)CC2)O1` yielded an MIC of over 1 µM.
`C[C@H]1COC2(CCN(c3nc(=O)c4cc(C(F)(F)F)cc([N+](=O)[O-])c4s3)CC2)O1` [BTZ-043] showed an MIC of under 0.02 µM.

From ChEMBL document CHEMBL3393049, “Syntheses and Antituberculosis Activity of 1,3-Benzothiazinone Sulfoxide and Sulfone Derived from BTZ043” (ACS Med Chem Lett, 2015)
